{"source": "patent US20080108665A1", "about": "“Use of N-substituted sulfoximines for control of invertebrate pests” (priority 2006, published 2008)", "key": {"[1]": {"system": "Cotton Aphid (Aphis gossypii)", "assay": "Cotton aphid seed coating assay on squash", "format": "in vivo", "settings": "3 mg/seed, 10% SC formulation, counted 3 days after infestation", "protocol": "Selected compounds of the invention were tested in assays designed to evaluate its systemic activity for control of cotton aphid through seed-coating prior to planting. The crop used in these assays was a hybrid squash (var. Pic-N-Pic). Test compound was formulated in a 10% SC formulation. Ten squash seeds were used for each treatment. Seeds were placed on waxed paper and a pipette was used to apply the original or diluted formulations to each seed. The air-dried, treated seeds were individually planted into 3 inch pots containing metro mix. The pots were placed on a California cart and moved into the greenhouse for sub watering only. At the specified number of days after planting, the plants were infested with approximately 40 wingless aphids. The infested plants were kept in an environmental holding room (23° C., 40% RH, 16 hr light: 8 hr dark) for three days before the number of live aphids was counted under a microscope. Calculations for % Control were based on a corrected basis compared to the populations on the reference plants germinated from seeds treated with the formulation blank.\nCorrected % Control=100*(X−Y)/X • where X=No. of live aphids on reference plants • Y=No. of live aphids on treated plants Assay 1. Compounds (1) and (2) were tested at 3 mg/seed. The original 10% SC formulation was used. One half (15 ul) of the sample was spread onto one side of a seed. Once dried (approximately 1 hr), the seed was flipped over and the 2nd half of sample was spread over the other side. Fourteen and 25 days after planting, aphid infestations were conducted on the 1st and 2nd true leaves, respectively.\nAssay 2. Compound (2) was tested at 0.1 and 1 mg/seed. For the 1 mg/seed treatment, the original 10% formulation was used. For the 0.1 mg/seed treatment, the 10% formulation were diluted 10× with DI water before application. One half (5 ul) of the sample was spread onto one side of a seed. Once dried (approximately 1 hr), the seed was flipped over and the 2nd half of sample was spread over the other side. Thirteen days after planting, the 1st leaf was infested."}, "[2]": {"system": "Green Peach Aphid (Myzus persicae)", "assay": "Green peach aphid root uptake assay on pepper", "format": "in vivo", "settings": "3 days after infestation", "protocol": "These assays were designed to evaluate the possibility of using the compounds identified in the foregoing examples for applications such as nursing trays, transplanting water and/or irrigation. Systemic activity against green peach aphid was evaluated in a root uptake assay. Bell peppers (Capsicum annum var. California Wonder) were used as test plants seeded and grown in rock wool plugs. Plants were grown to expanding 1st true leaf stage. The rock wool plugs containing individual plants were placed in 1-ounce cups and surrounded with white clean sand. Five plants were used for each treatment. A volume of 5 mL of the test solutions was applied to each cup (each plant). After insecticide application, the seedlings were infested with green peach aphids and held in a growth chamber (25° C., 50% RH, 16 hr light: 8 hr dark). Number of live aphids on each plant was counted at 3 days after infestation. Calculations for % Control were based on a corrected basis compared to the populations on the reference plants.\nCorrected % Control=100*(X−Y)/X • where X=No. of live aphids on reference plants • Y=No. of live aphids on treated plants Assay 1: Compound (3) was tested at a dose range of 5-500 μg/plant. A stock solution of 1000 ppm (1 mg/mL) was made by dissolving technical test compound in acetone:ethanol (90:10). The highest test concentration (100 ppm, 500 μg/5 ml) was prepared by diluting 2.5 mL stock solution with 22.5 mL DI water. The lower test concentrations (25 mL) were similarly prepared by diluting aliquots of the stock solution with DI water. Reference plants received DI water only.\nAssay 2: Compound (2) was tested at a dose range of 0.08-50 μg/plant. A stock solution of 1000 ppm was made by dissolving 2 mg of technical test compound in 2 mL acetone. The highest test concentration (10 ppm, 50 μg/5 ml) was prepared by diluting 0.32 mL stock solution with 1.6 mL acetone and 30.08 mL DI water, containing 6% acetone. Lower test concentrations were prepared by sequentially diluting 6.5 mL higher concentration (start from the 10 ppm test solution) with 26.0 ml acetone: DI water (6:94). The solvent/diluent system (6% acetone) was used as reference."}, "[3]": {"system": "sweet potato whitefly, Bemisia tabaci", "settings": "more recently-collected strains of whitefly, late 1990s; cited from earlier work"}}, "data": [{"smiles": "CS(=O)(Cc1ccc(Cl)nc1)=NC#N", "note": "(stereo not drawn) [Compound 1, [(6-Chloropyridin-3-yl)methyl](methyl)oxido-λ^4-sulfanylidenecyanamide]", "values": [{"measurement": "% Control, seed coating systemic 1st leaf, 14 days after planting", "setting": "[1]", "result": 100, "unit": "%"}, {"measurement": "% Control, seed coating systemic 2nd leaf, 25 days after planting", "setting": "[1]", "result": 99.6, "unit": "%"}]}, {"smiles": "N#CN=S1(=O)CCCC1Cc1ccc(Cl)nc1", "note": "(stereo not drawn) [Compound 3, 2-[(6-chloropyridin-3-yl)methyl]-1-oxidotetrahydro-1H-1-λ^4-thien-1-ylidenecyanamide]", "values": [{"measurement": "% Control, root uptake systemic", "setting": "[2]; 5 μg/plant", "result": 10, "unit": "%"}, {"measurement": "% Control, root uptake systemic", "setting": "[2]; 50 μg/plant", "result": 88, "unit": "%"}, {"measurement": "% Control, root uptake systemic", "setting": "[2]; 500 μg/plant", "result": 100, "unit": "%"}]}, {"smiles": "O=[N+]([O-])NC1=NCCN1Cc1ccc(Cl)nc1", "note": "[imidacloprid, Imidacloprid]", "values": [{"measurement": "resistance", "setting": "[3]", "result": "more than 100 fold"}]}]}
